Experimental data from patent US20260191192A1, “ANTIMICROBIAL COMPOSITIONS COMPRISING PELARGONIC ACID” (LANXESS Corporation, priority 2023, published 2026).

Key:
[1] = system: mixed fungal inoculum: Candida albicans ATCC #10231 and Aspergillus brasiliensis ATCC #16404; experiment: Challenge test (preservative efficacy), mixed fungal inoculum; type: cell-based
Procedure: (§1) The preservative activity in representative rinse-off and leave-on formulations was evaluated using a modification of the Personal Care Products Council (PCPC—formerly the Cosmetic, Toiletry and Fragrance Association) protocol (Machtiger, et al. 2001. Determination of the Efficacy of Preservation of Non-Eye Area Water Miscible Cosmetic and Toiletry Formulations: Collaborative Study. J of AOAC International. 84:1, 101-109).
(§2) This evaluation was conducted using a four week, two or three-cycle (i.e., two-cycle for personal care and three-cycle for home care applications) microbial preservative efficacy test (i.e., challenge test) at 25° C. to determine the preservative efficacy of each treatment. Phenoxyethanol, benzyl alcohol and pelargonic acid were tested alone and in various combinations. The pelargonic acid used in the testing was purchased from Sigma-Aldrich. Combinations of phenoxyethanol or benzyl alcohol with benchmark multifunctional booster compounds were also tested for comparison. The preservative and booster ingredients were dosed and mixed thoroughly at room temperature into various formulations, specifically different personal care formulations including a lotion (leave-on, Table 1), a micellar water (rinse-off, Table 2), and a body wash formulation (rinse-off, Table 3) and different home care formulations including a manual dishwashing formulation (Table 4) and a liquid laundry detergent formulation (Table 5). […] Carbomers are a commonly used synthetic rheological modifier in personal care products. The formulation below was made by heating the aqueous (A) and oil (B) phases separately to 75-80° C. The oil phase was then poured into the aqueous phase and mixed by a homogenizer at approximately 45° C. The formed oil-in-water emulsion was cooled to room temperature. Triethanolamine and/or diluted sodium hydroxide was used to adjust the final pH to 6.3 or 6.5 (as indicated in the examples below).
(§3) After dosing, the samples were divided into two separate five gram aliquots. One aliquot was inoculated with 50 μl of a diluted bacterial pool, and the second aliquot was inoculated with 50 μl of a diluted fungal pool as described below. Unpreserved product samples were included as a growth control.
(§4) For personal care products, a mixed bacterial inoculum was prepared using 24-hour cultures of the test bacteria (Table 6) grown in trypticase soy broth (TSB). For home care products, a mixed bacterial inoculum was prepared using 24-hour cultures of the test bacteria either from Table 6 (full pool) or Table 7 (simplified pool) grown in trypticase soy broth (TSB). Details are disclosed in the home care examples below. Equal volumes of the bacterial test strains were combined and diluted one to ten in phosphate buffer to obtain an inoculum of approximately 5×10^7 to 5×10^8 colony forming units per ml (cfu/ml). The test samples were inoculated with 1% of the mixed bacterial inoculum. For both personal care and home care products, a mixed fungal inoculum was prepared using cell suspensions of the yeast Candida albicans ATCC #10231 and the mold Aspergillus brasiliensis ATCC #16404 in phosphate buffer. Equal volumes of the fungal test strains were combined and diluted one to ten with phosphate buffer to obtain an inoculum of approximately 5×10^6 to 5×10^7 cfu/ml. The test samples were inoculated with 1% of the mixed fungal inoculum.
(§5) For personal care products, the samples were subjected to two microbial challenges at time zero and inoculated a second time after seven days. For home care products, the samples were subjected to three microbial challenges at time zero and inoculated a second and third time after seven and fourteen days, respectively. The number of microorganisms added to each sample was determined by a standard Most Probable Number (MPN) determination in Trypticase Soy Broth (TSB) for bacteria and Potato Dextrose Broth (PDB) for fungi. Samples were incubated at 25° C. for the test duration of four weeks.

[2] = system: bacteria (Table 6 pool) and fungi; experiment: Challenge test, overall result (full bacteria pool and fungi); type: cell-based
Procedure: as §1, §2, §3, §4, §5

[3] = system: mixed bacterial inoculum (Table 6); experiment: Challenge test (preservative efficacy), mixed bacterial inoculum, full pool (Table 6); type: cell-based
Procedure: as §1, §2, §3, §4, §5

[4] = ZenBio Cupric Ion Chelating (CIC) Assay; type: physicochemical; settings: calculated from a EDTA calibration curve, Pelargonic Acid at 775 μM
Procedure: The chelation property of the pelargonic acid was measured by using the ZenBio Cupric Ion Chelating (CIC) Assay (Cat #AOX-16). The assay measured the capacity of the pelargonic acid to chelate free cupric ions in solution, thereby inhibiting Cu(II) binding to pyrocatechol violet (PV) for generating a highly colored complex. The absorbance of the Cupric-PV complex was measured at a wavelength of 632 nm. The cupric ion chelating activity was determined as the percent of total PV over the Cu(II) binding. Ethylenediaminetetraacetic acid (EDTA), a well-known chelating agent, was used as a positive control. A series of EDTA with 7 different concentrations from 0 to 1000 μM were prepared and their corresponding absorbance measured and used as the calibration curve (Cupric ion chelating (%) vs. EDTA concentration). Percent cupric ion chelating was determined following the following calculations and Equation 1. The background absorbance value by averaging the absorbance values of the three background wells (no CuSO4 or sample). The average background absorbance was then subtracted from all the sample absorbance values. The maximal absorbance value (Absmax) was determined by averaging the absorbance values of the three wells containing CuSO4, PV and assay buffer. Abstest in Equation 1 is the absorbance of the test sample.
The calibration curve (Cupric ion chelating (%) vs. EDTA concentration) was fit by using a polynomial curve after log 10 transforming the concentrations (R2>0.98).

[5] = system: bacteria (Table 7 pool) and fungi; experiment: Challenge test, overall result (simplified bacteria pool and fungi); type: cell-based; settings: dosed 0.02 wt %
Procedure: as §1, §2, §3, §4, §5

[6] = system: mixed bacterial inoculum for home care (Table 7); experiment: Challenge test (preservative efficacy), mixed bacterial inoculum, simplified pool (Table 7); type: cell-based, Pseudomonas aeruginosa, Staphylococcus aureus; settings: dosed 0.02 wt %
Procedure: as §1, §2, §3, §4, §5

[7] = micellar water, pH 6.0, Example 1B, dosed 0.5 wt %
[8] = micellar water, pH 6.0, bacteria inoculation ~10^7 cfu/ml, Example 1B, dosed 0.5 wt %
[9] = body wash, pH 6.5, Example 1E, dosed 0.5 wt %
[10] = lotion with carbomer, pH 6.3, Example 1A, dosed 0.4 wt %
[11] = micellar water, pH 6.0, Example 1B, dosed 0.3 wt %
[12] = micellar water, pH 6.0, Example 1C, dosed 0.3 wt %
[13] = liquid laundry detergent, pH 7.5, Example 1H, dosed 0.02 wt %
[14] = lotion with carbomer, pH 6.5, Example 1I, dosed 0.016 wt %

For `CCCCC(O)CO` (stereo not shown) [1,2 hexanediol], the “Fungi growth rating Result” value [1, 7] was “Fail (growth rating score caused by fungi of more than 2 at days 21-28 of the testing period)”, the “Overall Result” value [2, 7] was “Fail” and the “Bacteria growth rating Result” value [3, 8] was “Pass (growth rating score caused by bacteria of 1 or less at days 21-28 of the testing period)”.

For `CCCCC(CC)COCC(O)CO` (stereo not shown) [2-ethyl-hexyl glycerin (EHG), 2-ethyl-hexyl glycerin], the “Fungi growth rating Result” value [1, 9] was “Fail (growth rating score caused by fungi of more than 2 at days 21-28 of the testing period)”, the “Fungi growth rating Result” value [1, 7] was “Fail (growth rating score caused by fungi of more than 2 at days 21-28 of the testing period)” and the “Overall Result” value [2, 9] was “Fail”. For the same compound, the “Overall Result” value [2, 7] was “Fail”, the “Bacteria growth rating Result” value [3, 9] was “Fail (growth rating score caused by bacteria of 2 or more at days 21-28 of the testing period)” and the “Bacteria growth rating Result” value [3, 8] was “Fail (growth rating score caused by bacteria of 2 or more at days 21-28 of the testing period)”. The “Calculated EDTA equivalent” value ([4]; listed as Ethylhexylglycerin) was about 0 µM and the “Calculated EDTA equivalent” value ([4]; listed as ethylhexylglycerin) was ~ 0 μM.

With `OCc1ccccc1` [Benzyl Alcohol (BA), benzyl alcohol] the “Fungi growth rating Result” value [1, 9] was “Pass (growth rating score caused by fungi of 2 or less at days 21-28 of the testing period)”, the “Fungi growth rating Result” value [1, 10] was “Fail (growth rating score caused by fungi of more than 2 at days 21-28 of the testing period)” and the “Fungi growth rating Result” value [1, 11] was “Fail (growth rating score caused by fungi of more than 2 at days 21-28 of the testing period)”. For the same compound, the “Fungi growth rating Result” value [1, 12] was “Fail (growth rating score caused by fungi of more than 2 at days 21-28 of the testing period)”, the “Overall Result” value [2, 9] was “Fail” and the “Overall Result” value [2, 10] was “Fail”. The “Overall Result” value [2, 11] was “Fail”, the “Overall Result” value [2, 12] was “Fail” and the “Bacteria growth rating Result” value [3, 9] was “Fail (growth rating score caused by bacteria of 2 or more at days 21-28 of the testing period)”. For the same compound, the “Bacteria growth rating Result” value [3, 10] was “Fail (growth rating score caused by bacteria of 2 or more at days 21-28 of the testing period)”, the “Bacteria growth rating Result” value ([3]; lotion with carbomer, pH 6.3, Example 1D, dosed 0.4 wt %) was “Fail (growth rating score caused by bacteria of 2 or more at days 21-28 of the testing period)” and the “Bacteria growth rating Result” value ([3]; lotion with carbomer, pH 6.3, Example 1D, dosed 0.8 wt %) was “Fail (growth rating score caused by bacteria of 2 or more at days 21-28 of the testing period)”. The “Bacteria growth rating Result” value ([3]; micellar water, pH 6.0, bacteria inoculation ~10^7 cfu/ml, Example 1B, dosed 0.3 wt %) was “Pass (growth rating score caused by bacteria of 1 or less at days 21-28 of the testing period)” and the “Bacteria growth rating Result” value ([3]; micellar water, pH 6.0, bacteria inoculation ~10^8 cfu/ml, Example 1C, dosed 0.3 wt %) was “Fail (growth rating score caused by bacteria of 2 or more at days 21-28 of the testing period)”.

In the case of `CCCCCCCC(=O)NO` [Caprylhydroxamic acid (CHA), Caprylhydroxamic acid], the “Fungi growth rating Result” value ([1]; liquid laundry detergent, pH 7.5, Example 1G, dosed 0.02 wt %) is reported as “Fail (growth rating score caused by fungi of more than 2 at days 21-28 of the testing period)”, the “Fungi growth rating Result” value [1, 13] is reported as “Fail (growth rating score caused by fungi of more than 2 at days 21-28 of the testing period)” and the “Fungi growth rating Result” value [1, 14] is reported as “Fail (growth rating score caused by fungi of more than 2 at days 21-28 of the testing period)”. For the same compound, the “Fungi growth rating Result” value ([1]; manual dishwashing formulation, pH 5.5, Example 1F, dosed 0.02 wt %) was “Fail (growth rating score caused by fungi of more than 2 at days 21-28 of the testing period)”, the “Overall Result” value ([5]; liquid laundry detergent, pH 7.5, Example 1G) was “Fail” and the “Overall Result” value ([5]; manual dishwashing formulation, pH 5.5, Example 1F) was “Fail”. For the same compound, the “Overall Result” value [2, 13] was “Fail”, the “Overall Result” value [2, 14] was “Fail” and the “Bacteria growth rating Result” value ([6]; liquid laundry detergent, pH 7.5, simplified bacteria pool, Example 1G) was “Fail (growth rating score caused by bacteria of 2 or more at days 21-28 of the testing period)”. The “Bacteria growth rating Result” value ([6]; manual dishwashing formulation, pH 5.5, simplified bacteria pool, Example 1F) was “Fail (growth rating score caused by bacteria of 2 or more at days 21-28 of the testing period)”, the “Bacteria growth rating Result” value ([3]; liquid laundry detergent, pH 7.5, full bacteria pool, Example 1H, dosed 0.02 wt %) was “Fail (growth rating score caused by bacteria of 2 or more at days 21-28 of the testing period)” and the “Bacteria growth rating Result” value [3, 14] was “Fail (growth rating score caused by bacteria of 2 or more at days 21-28 of the testing period)”.
